Test results from ChEMBL document CHEMBL1148661, “SAR studies: designing potent and selective LXR agonists” (Bioorg Med Chem Lett, 2006).

Legend:
[1] = target: T1, Oxysterols receptor LXR-beta (Homo sapiens, UniProt P55055); format: functional, cell-based, CHO
T1 sequence (P55055 whole entry): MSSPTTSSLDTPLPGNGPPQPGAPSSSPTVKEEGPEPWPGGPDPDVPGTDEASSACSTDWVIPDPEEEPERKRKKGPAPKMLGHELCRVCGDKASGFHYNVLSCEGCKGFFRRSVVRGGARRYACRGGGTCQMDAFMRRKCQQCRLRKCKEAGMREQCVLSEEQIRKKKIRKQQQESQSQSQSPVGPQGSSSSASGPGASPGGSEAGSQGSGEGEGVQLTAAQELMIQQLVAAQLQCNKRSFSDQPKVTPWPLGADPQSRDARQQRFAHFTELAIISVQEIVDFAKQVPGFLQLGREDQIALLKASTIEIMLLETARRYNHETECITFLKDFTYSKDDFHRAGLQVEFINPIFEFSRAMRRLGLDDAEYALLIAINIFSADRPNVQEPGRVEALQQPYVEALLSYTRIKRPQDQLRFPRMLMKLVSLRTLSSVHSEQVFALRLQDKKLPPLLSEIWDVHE

[2] = target: T2, Peroxisome proliferator-activated receptor delta (Homo sapiens, UniProt Q03181)
T2 sequence (Q03181 whole entry): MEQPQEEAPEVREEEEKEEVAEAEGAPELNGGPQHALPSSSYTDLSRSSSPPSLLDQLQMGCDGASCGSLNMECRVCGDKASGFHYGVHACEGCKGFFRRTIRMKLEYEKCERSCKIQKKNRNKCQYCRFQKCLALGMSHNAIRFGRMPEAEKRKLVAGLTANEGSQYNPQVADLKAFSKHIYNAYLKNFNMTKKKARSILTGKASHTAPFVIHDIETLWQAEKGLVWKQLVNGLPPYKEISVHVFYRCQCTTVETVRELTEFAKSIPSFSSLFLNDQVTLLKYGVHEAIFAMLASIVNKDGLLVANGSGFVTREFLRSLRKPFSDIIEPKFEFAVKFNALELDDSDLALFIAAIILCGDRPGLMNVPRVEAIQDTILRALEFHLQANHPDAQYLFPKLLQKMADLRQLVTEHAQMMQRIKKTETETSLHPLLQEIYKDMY

[3] = target: T3, Oxysterols receptor LXR-alpha (Homo sapiens, UniProt Q13133)
T3 sequence (Q13133 whole entry): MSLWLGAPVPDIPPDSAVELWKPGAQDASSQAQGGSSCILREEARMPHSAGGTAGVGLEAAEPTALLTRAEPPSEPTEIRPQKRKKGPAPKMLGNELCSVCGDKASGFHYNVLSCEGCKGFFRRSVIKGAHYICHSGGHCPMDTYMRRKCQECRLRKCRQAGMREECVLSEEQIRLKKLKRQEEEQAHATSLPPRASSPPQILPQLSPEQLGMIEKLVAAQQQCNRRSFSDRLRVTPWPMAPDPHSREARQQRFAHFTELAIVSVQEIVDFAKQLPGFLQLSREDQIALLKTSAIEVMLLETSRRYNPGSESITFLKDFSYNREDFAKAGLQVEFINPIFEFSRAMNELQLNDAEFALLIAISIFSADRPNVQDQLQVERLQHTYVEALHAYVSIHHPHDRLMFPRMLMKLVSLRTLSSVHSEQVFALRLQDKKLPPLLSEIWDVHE

[4] = target: T1, Oxysterols receptor LXR-beta
[5] = target: T3, Oxysterols receptor LXR-alpha; format: functional, cell-based, CHO
[6] = organism: Mus musculus; conditions: in vivo
[7] = in vivo; conditions: mouse, iv, 0.5 mg/kg
[8] = in vivo; conditions: mouse
[9] = in vivo; conditions: mouse, iv, 0.5 mg/kg; remark: listed apart in the source
[10] = target: T4, Peroxisome proliferator-activated receptor alpha (Homo sapiens, UniProt Q07869)
T4 sequence (Q07869 whole entry): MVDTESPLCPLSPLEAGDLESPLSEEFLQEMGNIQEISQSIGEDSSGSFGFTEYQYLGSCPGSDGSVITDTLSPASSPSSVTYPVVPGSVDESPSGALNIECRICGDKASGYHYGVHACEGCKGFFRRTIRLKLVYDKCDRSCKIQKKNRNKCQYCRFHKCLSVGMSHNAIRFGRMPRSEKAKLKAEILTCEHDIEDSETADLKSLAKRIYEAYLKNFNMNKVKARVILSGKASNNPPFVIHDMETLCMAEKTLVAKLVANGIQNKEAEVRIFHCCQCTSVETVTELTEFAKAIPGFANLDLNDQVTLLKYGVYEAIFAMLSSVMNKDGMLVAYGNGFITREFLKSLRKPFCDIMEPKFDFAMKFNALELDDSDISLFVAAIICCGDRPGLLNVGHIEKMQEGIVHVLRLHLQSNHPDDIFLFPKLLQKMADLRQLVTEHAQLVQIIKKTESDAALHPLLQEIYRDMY

Work on `CCCc1c(OCCCN(C)c2ccc(CC(=O)O)c(Cl)c2)ccc2c(C(F)(F)F)noc12` yielded an EC50 [1] of 124 nM, an IC50 [2] of 1400 nM and an IC50 [3] of 12 nM. The IC50 [4] was 10 nM and the EC50 [5] was 170 nM.

In the case of `CCCc1c(OCCCN(C)c2ncc(CC(=O)O)s2)ccc2c(C(F)(F)F)noc12`, the EC50 [1] is reported as 650 nM, the AUC [6] is reported as 3.1 µM·kg·h/mg and the Vd [7] is reported as 1.2 L/kg. The half-life [8] was 1.2 h, the IC50 [3] was 67 nM and the clearance [9] was 13 mL/min/kg. It also gave an IC50 [4] of 100 nM and an EC50 [5] of 1100 nM.

With `CCCc1c(OCCCN(C)c2cccc(CC(=O)O)c2)ccc2c(C(F)(F)F)noc12` the EC50 [1] was 3500 nM, the IC50 [2] was 93 nM and the IC50 [10] was 1500 nM. For the same compound, the IC50 [3] was 102 nM, the IC50 [4] was 98 nM and the EC50 [5] was 2600 nM.

`CCCc1c(OCCCN(C)c2ccccc2)ccc2c(C(F)(F)F)noc12` gave an IC50 [3] of 372 nM and an IC50 [4] of 428 nM.

Compound `CCCc1c(OCCCN(C)c2cnc(CC(=O)O)cn2)ccc2c(C(F)(F)F)noc12` has an EC50 [1] of 150 nM, an AUC [6] of 7.5 µM·kg·h/mg and a Vd [7] of 2.8 L/kg. The half-life [8] was 2.1 h, the IC50 [3] was 90 nM and the clearance [9] was 17 mL/min/kg. The IC50 [4] was 40 nM and the EC50 [5] was 540 nM.

For `O=C(O)Cc1cccc(OCCCN(Cc2cccc(C(F)(F)F)c2Cl)CC(c2ccccc2)c2ccccc2)c1`, the AUC [6] was 2 µM·kg·h/mg, the Vd [7] was 1.2 L/kg and the half-life [8] was 3.4 h. For the same compound, the clearance [9] was 8 mL/min/kg.

In the case of `CCCc1c(OCCCn2ccc3cc(CC(=O)O)ccc32)ccc2c(C(F)(F)F)noc12`, the EC50 [1] is reported as 450 nM, the AUC [6] is reported as 2.7 µM·kg·h/mg and the Vd [7] is reported as 2.7 L/kg. It also gave an IC50 [10] of 400 nM, a half-life [8] of 3.9 h and an IC50 [3] of 16 nM. The clearance [9] was 18 mL/min/kg, the IC50 [4] was 16 nM and the EC50 [5] was 590 nM.

In the case of `CCCc1c(OCCCn2ccc3cc(CCC(=O)O)ccc32)ccc2c(C(F)(F)F)noc12`, the EC50 [1] is reported as 700 nM, the IC50 [2] is reported as 70 nM and the IC50 [10] is reported as 450 nM. It also gave an IC50 [3] of 18 nM, an IC50 [4] of 6 nM and an EC50 [5] of 820 nM.

Work on `CCCc1c(OCCCN2C(=O)Cc3cc(C(=O)O)ccc32)ccc2c(C(F)(F)F)noc12` yielded an EC50 [1] of 4400 nM, an IC50 [3] of 97 nM and an IC50 [4] of 700 nM. For the same compound, the EC50 [5] was 3000 nM.

With `CCCc1c(OCCCn2ncc3cc(CC(=O)O)ccc32)ccc2c(C(F)(F)F)noc12` the EC50 [1] was 580 nM, the IC50 [10] was 780 nM and the IC50 [3] was 73 nM. For the same compound, the IC50 [4] was 87 nM and the EC50 [5] was 480 nM.

For `CCCc1c(OCCCCc2ccc(CC(=O)O)cc2)ccc2c(C(F)(F)F)noc12`, the IC50 [3] was 530 nM and the IC50 [4] was 970 nM.

For `CCCc1c(OCCCN(C)c2ccc(CC(=O)O)cc2Cl)ccc2c(C(F)(F)F)noc12`, the IC50 [2] was 49 nM, the IC50 [3] was 630 nM and the IC50 [4] was 170 nM.

Work on `CCCc1c(OCCCN(C)c2ccc(CC(=O)O)c(C(F)(F)F)c2)ccc2c(C(F)(F)F)noc12` yielded an EC50 [1] of 1300 nM, an IC50 [2] of 540 nM and an IC50 [10] of 140 nM. For the same compound, the IC50 [3] was 60 nM, the IC50 [4] was 18 nM and the EC50 [5] was 3600 nM.

Compound `CCCc1c(OCCCN(C)c2ccc(CC(=O)O)c(C)c2)ccc2c(C(F)(F)F)noc12` has an EC50 [1] of 303 nM, an IC50 [2] of 150 nM and an IC50 [10] of 870 nM. It also gave an IC50 [3] of 117 nM, an IC50 [4] of 26 nM and an EC50 [5] of 1300 nM.

For `CCCc1c(OCCCN(C)c2ccc(CC(=O)O)cn2)ccc2c(C(F)(F)F)noc12`, the IC50 [3] was 105 nM, the IC50 [4] was 630 nM and the EC50 [5] was 5000 nM.
